A short description of the series: pH of aqueous solution after adding 30 g powder to 100 g water. The format is physicochemical. The conditions noted are these: powder dissolved in distilled water, result in words. The procedure: After the addition of the alkaline oxides or hydroxides, the aqueous solutions were measured for pH and the results are given in Table 1.
`[O]=[Ti]=[O]` [Material No. C. 1, TiO2]: the “influence on the pH of the distilled water” value is “no influence on the pH”.
For the molecule `O=[Si]=O` [Material No. C. 3, SiO2], the “influence on the pH of the distilled water” value is given as “no influence on the pH”.
For `[O]=[Al][O][Al]=[O]` [Material No. C. 2, Al2O3] the value was “no influence on the pH”.

Values taken from patent publication US6773803B2, “Far-infrared emission powder with antibacterial activity and bio-wave steel plate coated with resin containing same” (Posco, priority 2000, dated 2004).
